# Test results: patent US20050245465A1, “Compounds for treating Alzheimer's disease and for inhibiting beta-amyloid peptitde production” (priority 2004, published 2005)
# “Also recorded” adds a separate entry of the source. Like-named read-outs stand apart in the source and are kept apart here.
# Tests used:
# CHO-APP/ΔE9PS1 cells = test: Secreted Aβ40/Aβ42 ELISA in CHO-APP/ΔE9PS1 cells; assay type: cell-based, Chinese hamster; details: 50 μM, 8 hrs
# Protocol: (§1) FIG. 10 depicts the effects of native ginsenosides on Aβ42 production. CHO cells stably transfected with human APP695 together with either wild-type (A, CHO-APP/PS1 cells) or ΔE9 FAD mutant (B, CHO-APP/ΔE9PS1 cells) forms of PS1 were used. Cells were treated with the indicated compounds (at 50 μM) for 8 hrs. Levels of secreted Aβ40 and Aβ42 in the medium were determined by ELISA and normalized to intracellular full-length APP. In CHO-APP/PS1 cells, average Aβ amounts in control samples were 320 pM for Aβ40 and 79 pM for Aβ42. The relative levels of Aβ and Aβ42 were normalized to values obtained from non-treated and vehicle-treated cells and are shown as % to control+s.d.). One of three representative experiments are shown.
# (§2) CHO-APP/PS1 (A) and CHO-APP/ΔE9PS1 (B) cells were treated with the indicated compounds at 50 μM for 8 hrs and the levels of secreted Aβ40 and Aβ42 were determined as described in FIG. 1. […] The PS1-ΔE9 FAD mutation diminished the Aβ42 response to Rk1 treatment (B).
# Steaming ginseng at high temperature gave rise to additional ginsenosides with enhanced pharmacological activity, including (20S)Rg3, Rk1 and Rg5 (22-25). Next, the effects of these heat-processing derived ginsenosides (e.g., (20S)Rg3, Rh1, Rh2, Rk1, Rg6, Rg5) on Aβ40 and Aβ42 generation were tested. […] In contrast, Aβ42 levels were not affected by (20R)Rg3, Rh1, and Rg6. Aβ40 levels were not changed by treatment with any of the ginsenosides tested. The potency of Aβ42-lowering activity was highest with Rk1 and (20S)Rg3. […] The secretion of Aβ40 was affected by treatment with Rk1 only at very high concentration (˜100 μM) and cell viability was not affected by treatment of Rk1 under these conditions (up to 100 μM, 8 hour treatment; data not shown). […] Overnight treatment with Rgk351, Rk1, and Rg5 also reduce Aβ42 production in CHO-APP cells (FIG. 12B). […]
# CHO-APP/PS1 cells = test: Secreted Aβ40/Aβ42 ELISA in CHO-APP/PS1 cells; assay type: cell-based, Chinese hamster; details: for potency of Aβ42-reducing activity (order): 50 μM, 8 hrs
# Protocol: as §1, §2
# [1] = test system: primary embryonic cortical neurons derived from Tg2576 transgenic mice; test: Aβ40 and Aβ42 secretion in primary embryonic cortical neurons; assay type: cell-based
# Text: Treatment of Rk1 and Rg3 decreased the level of secreted Aβ40 and Aβ42.
# CHO-APP cells = test: Mass spectrometric analysis of Aβ species from CHO-APP cells; assay type: cell-based, Chinese hamster; details: mass spectrometry, vs DMSO
# Protocol: Note that treatment leads to a decrease in Aβ42 species (1-42), and elevation in both Aβ37 (1-37) and Aβ38 (1-38). Mass spectrometric analysis of Aβ species were performed as previously described (Wang R, Sweeny D, Gandy S E, Sisodia S S. The profile of soluble amyloid β-protein in cultured cell media. J. Bio. Chem. 1996; 271: 31894-31902).
# [2] = test system: CHO cells expressing human APP; test: Secreted Aβ40/Aβ42 ELISA in medium of CHO-APP cells; assay type: cell-based, Chinese hamster; set-up: key to Aβ42-lowering activity: Aβ42-lowering activity (“Yes”); no profound effects (“No”); non-determined (“ND”); Ginsenosides that affected cell viability are indicated as “Cytotoxic.”; details: for Aβ42-lowering activity: Tables 1-3; for secretion of Aβ42 (initial screening): heat-processing derived ginsenosides; for production of Aβ42 in cells (summary statement): mammalian cells, in vitro
# Protocol: The CHO cells were treated with the indicated compounds (at 50 μg/ml) for 8 hrs. Aβ42 levels in the medium were measured by ELISA and normalized to intracellular full-length APP.
# The potential effects of ginsenosides and their analogues in treating AD were examined. First, a number of ginsenosides were screened based on their effects on Aβ generation. The effects of various ginsenosides on Aβ (e.g., Aβ40 and Aβ42) production was initially accessed by incubating the Chinese hamster ovary (CHO) cells expressing human APP(CHO-APP cells) with each ginsenoside purified from unprocessed ginseng (known as “white ginseng”). These representative ginsenosides included Rb1, Rb2, Rc, Rd, Re, Re, Rg1 and Rg2 and differ in their side chains and sugar moieties.
# After 8 hours of incubation, the media were collected and the levels of secreted Aβ40 and Aβ42 were determined by ELISA.
# Steaming ginseng at high temperature gave rise to additional ginsenosides with enhanced pharmacological activity, including (20S)Rg3, Rk1 and Rg5 (22-25). Next, the effects of these heat-processing derived ginsenosides (e.g., (20S)Rg3, Rh1, Rh2, Rk1, Rg6, Rg5) on Aβ40 and Aβ42 generation were tested. […] In contrast, Aβ42 levels were not affected by (20R)Rg3, Rh1, and Rg6. Aβ40 levels were not changed by treatment with any of the ginsenosides tested. The potency of Aβ42-lowering activity was highest with Rk1 and (20S)Rg3. […] The secretion of Aβ40 was affected by treatment with Rk1 only at very high concentration (˜100 μM) and cell viability was not affected by treatment of Rk1 under these conditions (up to 100 μM, 8 hour treatment; data not shown). […] Overnight treatment with Rgk351, Rk1, and Rg5 also reduce Aβ42 production in CHO-APP cells (FIG. 12B). […] These studies provide a structure-activity relationship between the chemical structures of ginsenosides and Aβ42-lowering activity, further providing the basis for designing additional Aβ42-lowering analogues as well as for defining a class of compounds that harbor Aβ42-lowering activity.
# γ-secretase = test: Cell-free γ-secretase assay (CHAPSO-solubilized membrane fractions, Aβ ELISA); assay type: biochemical; details: for IC50: cell-free γ-secretase assay
# Protocol: (A) CHAPSO-solubilized membrane fractions were incubated with recombinant γ-secretase substrates together with the indicated compounds (at 100 μM) and the levels of Aβ42 and Aβ40 were determined by ELISA as described (27-29). (B) Dose-response of Aβ40 and Aβ42-lowering activity of Rk1 and (20S)Rg3 in a cell-free γ-secretase assay.
# Next, the inhibitory effects of Rk1 and (20S)Rg3 on Aβ generation in an in vitro γ-secretase assay was studied. […] In contrast, naproxen, an NSAID without Aβ42-lowering activity, had no effects on Aβ42 production (FIG. 15A).
# APP = test: Western blot of APP processing in CHO-APP and Neuro2a-APPsw cells; assay type: cell-based, Chinese hamster and mouse; details: cell lysates
# Text: FIG. 13. depicts an analysis of APP processing after Rk1 treatment. Steady-state levels of full-length APP and APP C-terminal fragments (APP-CTFs) were examined by Western blot analysis using anti-R1 antibody. […] Correlated Aβ42 levels for each sample are shown in the bottom panel.
SMILES,Aβ42-lowering response in PS1 ΔE9 FAD mutant cells vs PS1 wild-type cells (CHO-APP/ΔE9PS1 cells),potency of Aβ42-reducing activity (order) (CHO-APP/PS1 cells),level of secreted Aβ40 and Aβ42 [1],Aβ37 (1-37) and Aβ38 (1-38) (CHO-APP cells),Aβ42 species (1-42) (CHO-APP cells),potency of Aβ42-lowering activity (comparison among ginsenosides) [2],Aβ42-lowering activity [2],secretion of Aβ42 (initial screening) [2],production of Aβ42 in cells (summary statement) [2],IC50 (γ-secretase; read-out: IC50 for Aβ40) [µM],IC50 (γ-secretase; read-out: IC50 for Aβ42) [µM],Aβ40 and Aβ42 generation in cell-free γ-secretase assay (γ-secretase; dose-response),"Aβ42 levels (CHO-APP/PS1 cells; CHO cells co-expressing human APP with wild-type PS1 or FAD mutant PS1 (delta E9, L286V))",full-length APP levels (APP),APP C-terminal fragments (γ-secretase substrates) (APP; CHO-APP and Neuro2a APPsw cells),"Aβ42 in the medium, dose-dependence ([2]; CHO cells expressing human APP)","generation of Aβ42 (Aβ42 levels in the medium, ELISA, normalized to intracellular full-length APP) ([2]; CHO cells stably transfected with human APP695, 50 μg/ml, 8 hrs)","Aβ42 vs. Aβ40 in the medium (preference) ([2]; CHO-APP cells, normalized to non-treated and vehicle-treated cells)","Aβ42 production ([2]; overnight treatment, CHO-APP cells)"
CC(C)=CCC[C@](C)(O)[C@H]1CC[C@]2(C)[C@@H]1[C@H](O)C[C@@H]1[C@@]3(C)CC[C@H](O[C@@H]4O[C@H](CO)[C@@H](O)[C@H](O)[C@H]4O[C@@H]4O[C@H](CO)[C@@H](O)[C@H](O)[C@H]4O)C(C)(C)[C@@H]3CC[C@]12C [(20S)Rg3],diminished,Rk1>/=(20S)Rg3>Rg5>(20R)Rg3,decreased,elevation,decrease,highest,Yes,selectively lowered,lower,27 ± 4,26 ± 7,inhibits; also recorded: inhibited both Aβ40 and Aβ42 with a similar potency,,,,,,,
CC(C)=CC/C=C(\C)[C@H]1CC[C@]2(C)[C@@H]1[C@H](O)C[C@@H]1[C@@]3(C)CC[C@H](O[C@@H]4O[C@H](CO)[C@@H](O)[C@H](O)[C@H]4O[C@@H]4O[C@H](CO)[C@@H](O)[C@H](O)[C@H]4O)C(C)(C)[C@@H]3CC[C@]12C [Rg5],diminished,Rk1>/=(20S)Rg3>Rg5>(20R)Rg3,,,,much smaller as compared to Rgk351 and Rk1; also recorded: less effective,Yes,selectively lowered,lower,,,,much smaller as compared to Rgk351 and Rk1,not affected,increased accumulation,reduced; also recorded: lower Aβ42 in a dose-dependent manner,reduce,preferentially reduced Aβ42 (vs. Aβ40),reduce
